How the values were obtained:
[1] = test system: CHGA119 patient-derived primary gastric tumor xenograft model; test: Antitumor activity and body weight in CHGA119 patient-derived xenograft
From the text: In these studies, CHGA119 tumor fragments in size of 2mm ×2mm×2mm were implanted subcutaneously (s.c.) into female nu/nu athymic mice. […] Tumors were calipered twice a week.

complement factor Clq = biological target: T1, complement factor Clq (Homo sapiens, UniProt P02745+P02746+P02747); test: Clq binding ELISA; settings: antibody coated 25 to 0.02 μg/ml
T1 construct: purchased Sigma C1740-1mg
Procedure: In additional studies, the ability of the unconjugated anti-FGFR2 antibodies to bind the complement factor Clq was evaluated. The binding of the complement factor Clq is the initial step leading to complement dependent cytotoxicity (CDC) and cell lysis in vivo. In these studies the surface of the wells of 96-well microtiterplates (Nunc, Maxisorp, catalog # 439454) were coated with serial dilutions of the antibodies 12433, 12425, N297A_12425 and 10164 over night at 4° C. in the dark (all in a concentration range from 25 to 0.02 μg/ml). The commercially available antibody, Rituximab served as a positive control. In order to monitor the amount of bound antibody analyte on the microtiterplate, this procedure was performed twice per plate utilizing the second dilution (in triplicate) for determining the coating efficacy of the analyte to the plate. Clq binding was quantified by adding a constant concentration of Clq (Sigma; Complement component Clq catalog # C1740-1mg) and detected using a polyclonal goat-anti-human Clq antibody conjugated to Horse Radish Peroxidase HRP (AbD Serotec; Sheep Anti-Human Clq:HRP; Catalogue number 2221-5004P). The control of the coating efficiency was determined in the second dilution series with a peroxidase-conjugated goat-anti-human IgG antibody fragment (Jackson ImmunoResearch; catalog # 109-036-003; AffiniPure F(ab′2) fragment Goat Anti-Human IgG (H+L)). […]

[2] = CHGA119-tumor bearing mice, ADCs 10 mg/kg i.v. q2wk, BGJ398 10 mg/kg p.o. qd

T1 sequence (P02745 23-245): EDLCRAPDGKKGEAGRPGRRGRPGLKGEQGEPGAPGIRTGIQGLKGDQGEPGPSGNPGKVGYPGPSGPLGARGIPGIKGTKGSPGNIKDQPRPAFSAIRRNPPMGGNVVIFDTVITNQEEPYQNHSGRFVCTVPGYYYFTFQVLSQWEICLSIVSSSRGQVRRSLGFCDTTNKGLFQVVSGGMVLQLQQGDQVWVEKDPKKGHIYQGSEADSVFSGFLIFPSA
T1 sequence (P02746 28-253): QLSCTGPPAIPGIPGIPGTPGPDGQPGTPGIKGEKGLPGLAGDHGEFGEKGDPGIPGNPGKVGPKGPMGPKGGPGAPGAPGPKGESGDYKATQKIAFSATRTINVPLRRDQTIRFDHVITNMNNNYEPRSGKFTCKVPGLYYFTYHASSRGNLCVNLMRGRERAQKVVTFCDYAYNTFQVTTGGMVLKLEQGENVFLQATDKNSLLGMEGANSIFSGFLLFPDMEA
T1 sequence (P02747 29-245): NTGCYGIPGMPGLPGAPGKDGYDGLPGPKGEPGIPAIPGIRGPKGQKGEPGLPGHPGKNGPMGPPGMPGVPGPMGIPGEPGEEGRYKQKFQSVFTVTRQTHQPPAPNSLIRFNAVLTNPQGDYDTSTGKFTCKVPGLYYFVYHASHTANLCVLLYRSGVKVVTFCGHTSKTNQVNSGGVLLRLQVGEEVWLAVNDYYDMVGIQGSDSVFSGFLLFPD

Compound	Host response: % body weight change (mean ± SEM) [1, 2] [%]	Host response: Mean body weight change (g ± SEM) [1, 2] [g]	Host response: Survival (survivors/total) [1, 2]	T/C ([1]; single agent, 10 mg/kg, after 5 weeks of treatment) [%]	Clq binding potency (EC50) (complement factor Clq)
CCN1CCN(c2ccc(Nc3cc(N(C)C(=O)Nc4c(Cl)c(OC)cc(OC)c4Cl)ncn3)cc2)CC1 [BGJ398, 3-(2,6-Dichloro, 3,5-dimethoxy-phenyl)-1-{6-[4-(4-ethyl-piperazin-1-yl)-phenylamino]-pyrimidin-4-yl}-1-methyl-urea]	−3.7 ± 3	-0.8 ± 0.7	8/8	33	–
Rituximab: commercially available antibody, positive control for Clq binding	–	–	–	–	about the same

From patent publication US20190345250A1, “ANTIBODY DRUG CONJUGATES” (NOVARTIS AG, priority 2013, published 2019)
